Legend:
[1] = test system: AII receptor; test: Assay C: In Vivo Intravenous Pressor Assay Response for AII Antagonists; set-up: species or system male Sprague-Dawley rats, ganglion-blocked
Method: The in vivo AII receptor antagonist activity of Example #5 compound was examined in ganglion-blocked male Sprague-Dawley rats (Harlan Sprague-Dawley, Inc.), weighing 300-400 g, anesthetized with 100 mg/kg i.p. Inactin. Catheters (PE-50) were implanted in a femoral artery and vein to measure mean arterial pressure and to administer compounds, respectively. A tracheal catheter maintained airway patency. For intravenous experiments, autonomic neurotransmission was blocked by treatment with mecamylamine (3 mg/kg i.v.) and atropine (400 μg/kg i.v.). AII (30 ng/kg i.v., 20-25 μl volume) was administered four times at 10 minute intervals to establish a reproducible control pressor response. Example #5 compound was then administered at 1, 3 and 10 mg/kg in separate groups of rats as an intravenous bolus (0.2 ml volume) before rechallenging with AII (30 ng/kg, 20-25 μl volume) for the following 2 hours. For intraduodenal experiments, rats were anesthetized as above, but ganglion blockade was not performed. AII was administered at 100 ng/kg i.v. (20-25 μl volume), and was administered at 10, 30 and 100 mg/kg in separate groups of rats as an intraduodenal bolus (0.2 ml volume). Angiotensin II injections were then given 5, 10, 20, 30, 45, 60, 75, 90, and 120 minutes after administration of the test compound and response of arterial pressure was monitored. The response to AII was calculated as percent of the control response and then the percent inhibition was calculated as 100 minus the percent control response. Duration of action of a test compound was defined as the time from peak percent inhibition to 50% of peak. The test compound was tested in two rats and the values for the two rats were averaged.

[2] = biological target: smooth muscle angiotensin II receptor; test: Assay A: Angiotensin II Binding Activity; conditions: rat uterine membranes, 25° C., 60 min; read-out: Assay A IC50 (50% displacement of specifically bound 125I-AII)
Method: Other chemicals were obtained from Sigma Chemical Co. This assay was carried out according to the method of Douglas et al [Endocrinology, 106, 120-124 (1980)]. Rat uterine membranes were prepared from fresh tissue. All procedures were carried out at 4° C. Uteri were stripped of fat and homogenized in phosphate-buffered saline at pH 7.4 containing 5 mM EDTA. The homogenate was centrifuged at 1500×g for 20 min., and the supernatant was recentrifuged at 100,000×g for 60 min. The pellet was resuspended in buffer consisting of 2 mM EDTA and 50 mM Tris-HCl (pH 7.5) to a final protein concentration of 4 mg/ml. […] The reaction was initiated by the addition of membrane protein and the mixture was incubated at 25° C. for 60 min. The incubation was terminated with ice-cold 50 mM Tris-HCl (pH 7.5) and the mixture was filtered to separate membrane-bound labelled peptide from the free ligand. The incubation tube and filter were washed with ice-cold buffer. Filters were assayed for radioactivity in a Micromedic gamma counter. Nonspecific binding was defined as binding in the presence of 10 μM of unlabelled AII. Specific binding was calculated as total binding minus nonspecific binding. […] Binding data were analyzed by a nonlinear least-squares curve fitting program.

[3] = test system: response to angiotensin II (mean arterial pressure); test: Assay E: Mean Arterial Pressure, acute administration with AII infusion; assay type: in vivo, male Sprague-Dawley rats, conscious; conditions: for Mean Arterial Pressure: n = 6, means±SE
Method: antagonist compound (Ex. #5) and a glutamyl conjugate (Ex. #81) of the Ex. #5 AII antagonist compound to determine the renal selectivity of the conjugate. Male Sprague-Dawley rats (300-350 g body weight) had catheters implanted into the femoral artery and vein under chloral hydrate anesthesia (400 mg/kg, i.p.). After 2 to 4 days of recovery, on the experimental day, a urinary bladder catheter was implanted under methohexital anesthesia (50 mg/kg, i.p.). Rats were placed in a restraint device to allow for urine collection and mean arterial pressure measurements. After 1-2 hours of recovery, in conscious rats, an isotonic saline infusion (50 μl/min) was started and continued for the duration of the experiment. After one hour equilibration to the saline infusion, a 20 minute control urine and mean arterial pressure collection were obtained. Then angiotensin II was infused at 20 ng/min for 25 minutes. After 5 minutes of angiotensin II infusion, a 20 minute experimental collection was made. Finally, 5 minutes after the end of angiotensin II infusion, a 20 minute recovery collection was obtained. In separate groups of rats, vehicle (0.3 ml isotonic saline, i.v. bolus), Example #5 angiotensin II antagonist compound (100 mg/kg, i.v. bolus), or Example #81 conjugate (100 mg/kg, i.v. bolus) was administered 1-2 minutes prior to onset of angiotensin II infusion. […] Results are shown in Tables XIII and XIV and also in FIGS. 3 and 4. Data are presented as means±SE. Repeated measures analysis of variance was used for main effects and interactions and Tukey's HSD test was used for pairwise comparisons among means. Statistical significance was defined as p<0.05.

## CCCCc1nc(Cl)c(CO)n1Cc1ccc(-c2ccccc2C(=O)O)cc1 [Example 5]
[1]; 1 mg/kg i.v., 1 min
  % Control of AII Pressor Response: 80%
[1]; 1 mg/kg i.v., 5 min
  % Control of AII Pressor Response: 85%
[1]; 1 mg/kg i.v., 10 min
  % Control of AII Pressor Response: 92%
[1]; 1 mg/kg i.v., 20 min
  % Control of AII Pressor Response: 90%
[1]; 1 mg/kg i.v., 30 min
  % Control of AII Pressor Response: 88%
[1]; 1 mg/kg i.v., 40 min
  % Control of AII Pressor Response: 86%
[1]; 1 mg/kg i.v., 50 min
  % Control of AII Pressor Response: 86%
[1]; 1 mg/kg i.v., 60 min
  % Control of AII Pressor Response: 89%
[1]; 1 mg/kg i.v., 75 min
  % Control of AII Pressor Response: 93%
[1]; 1 mg/kg i.v., 90 min
  % Control of AII Pressor Response: 95%
[1]; 1 mg/kg i.v., 120 min
  % Control of AII Pressor Response: 100%
[1]; 3 mg/kg i.v., 1 min
  % Control of AII Pressor Response: 39%
[1]; 3 mg/kg i.v., 5 min
  % Control of AII Pressor Response: 55%
[1]; 3 mg/kg i.v., 10 min
  % Control of AII Pressor Response: 63%
[1]; 3 mg/kg i.v., 20 min
  % Control of AII Pressor Response: 68%
[1]; 3 mg/kg i.v., 30 min
  % Control of AII Pressor Response: 74%
[1]; 3 mg/kg i.v., 40 min
  % Control of AII Pressor Response: 75%
[1]; 3 mg/kg i.v., 50 min
  % Control of AII Pressor Response: 75%
[1]; 3 mg/kg i.v., 60 min
  % Control of AII Pressor Response: 81%
[1]; 3 mg/kg i.v., 75 min
  % Control of AII Pressor Response: 88%
[1]; 3 mg/kg i.v., 90 min
  % Control of AII Pressor Response: 92%
[1]; 3 mg/kg i.v., 120 min
  % Control of AII Pressor Response: 98%
[1]; 10 mg/kg i.v., 1 min
  % Control of AII Pressor Response: 4%
[1]; 10 mg/kg i.v., 5 min
  % Control of AII Pressor Response: 16%
[1]; 10 mg/kg i.v., 10 min
  % Control of AII Pressor Response: 23%
[1]; 10 mg/kg i.v., 20 min
  % Control of AII Pressor Response: 31%
[1]; 10 mg/kg i.v., 30 min
  % Control of AII Pressor Response: 40%
[1]; 10 mg/kg i.v., 40 min
  % Control of AII Pressor Response: 47%
[1]; 10 mg/kg i.v., 50 min
  % Control of AII Pressor Response: 51%
[1]; 10 mg/kg i.v., 60 min
  % Control of AII Pressor Response: 60%
[1]; 10 mg/kg i.v., 75 min
  % Control of AII Pressor Response: 71%
[1]; 10 mg/kg i.v., 90 min
  % Control of AII Pressor Response: 80%
[1]; 10 mg/kg i.v., 120 min
  % Control of AII Pressor Response: 96%
[2]
  IC50: 216 ± 45 nM
[3]; 100 mg/kg i.v. bolus, Recovery after AII infusion
  Mean Arterial Pressure: 124 ± 7 mm Hg
[3]; 100 mg/kg i.v. bolus, during AII infusion 20 ng/min, * in table
  Mean Arterial Pressure: 125 ± 7 mm Hg
[3]; 100 mg/kg, i.v. bolus, AII 20 ng/min
  mean arterial pressure response to angiotensin II: prevented both responses to angiotensin II
[3]; Control period (before dosing)
  Mean Arterial Pressure: 123 ± 5 mm Hg

Reference: US5302610A, “Renal-selective biphenylmethyl imidazole angiotensin II antagonists for treatment of hypertension” (G. D. Searle & Co., priority 1991, dated 1994)
